How the values were obtained:
Format in all cases: in vivo
[1] = tested on: foxtail, giant (Setaria faberii); experiment: Test A postemergence, giant foxtail; conditions: 0 to 100 scale
Summary of the method: (§1)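 Visual injury scores (0 no effect to 100 complete control) were assigned about 10 d after treatment by comparison with untreated controls. Test chemicals, formulated in a surfactant-containing non-phytotoxic solvent, were applied to soil at planting or to plants at the one- to two-leaf stage.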

[2] = tested on: ryegrass, Italian (Lolium multiflorum); experiment: Test A preemergence, Italian ryegrass; conditions: 0 to 100 scale; for Ryegrass, Italian plant response rating: 0 is no effect, 100 is complete control
Summary of the method: as §1

[3] = tested on: barnyardgrass (Echinochloa crus-galli); experiment: Test B flooded paddy test, barnyardgrass; conditions: Flood, 250 g ai/ha, applied to paddy water, 2-leaf stage, visual evaluation after 13 to 15 d
Summary of the method: (§2)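 Plants grown to 2-leaf stage. Compounds applied directly into paddy water flooded 3 cm above soil, with that depth kept throughout. After 13–15 d in greenhouse, visual rating versus controls on a 0–100 scale (0 no effect, 100 complete control).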

kochia (Kochia scoparia) [4] = experiment: Test A postemergence, kochia; conditions: 0 to 100 scale
Summary of the method: as §1

[5] = tested on: wheat (Triticum aestivum); experiment: Test A postemergence, wheat; conditions: 0 to 100 scale
Summary of the method: as §1

[6] = tested on: ragweed (common ragweed, Ambrosia elatior); experiment: Test A postemergence, ragweed; conditions: 0 to 100 scale
Summary of the method: as §1

[7] = tested on: pigweed (Amaranthus retroflexus); experiment: Test A postemergence, pigweed; conditions: 0 to 100 scale
Summary of the method: as §1

[8] = tested on: foxtail, giant (Setaria faberii); experiment: Test A preemergence, giant foxtail; conditions: 0 to 100 scale; for Foxtail, Giant plant response rating: 0 is no effect, 100 is complete control
Summary of the method: as §1

[9] = tested on: barnyardgrass (Echinochloa crus-galli); experiment: Test A postemergence, barnyardgrass; conditions: 0 to 100 scale
Summary of the method: as §1

[10] = tested on: pigweed (Amaranthus retroflexus); experiment: Test A preemergence, pigweed; conditions: 0 to 100 scale; for Pigweed plant response rating: 0 is no effect, 100 is complete control
Summary of the method: as §1

[11] = tested on: blackgrass (Alopecurus myosuroides); experiment: Test A postemergence, blackgrass; conditions: 0 to 100 scale
Summary of the method: as §1

[12] = tested on: galium (catchweed bedstraw, Galium aparine); experiment: Test A postemergence, galium; conditions: 0 to 100 scale
Summary of the method: as §1

[13] = tested on: ragweed (common ragweed, Ambrosia elatior); experiment: Test A preemergence, ragweed; conditions: 0 to 100 scale; for Ragweed plant response rating: 0 is no effect, 100 is complete control
Summary of the method: as §1

[14] = tested on: ducksalad (Heteranthera limosa); experiment: Test B flooded paddy test, ducksalad; conditions: Flood, 250 g ai/ha, applied to paddy water, 2-leaf stage, visual evaluation after 13 to 15 d
Summary of the method: as §2

[15] = tested on: barnyardgrass (Echinochloa crus-galli); experiment: Test A preemergence, barnyardgrass; conditions: 0 to 100 scale; for Barnyardgrass plant response rating: 0 is no effect, 100 is complete control
Summary of the method: as §1

rice (Oryza sativa) = experiment: Test B flooded paddy test, rice; conditions: Flood, 250 g ai/ha, applied to paddy water, 2-leaf stage, visual evaluation after 13 to 15 d
Summary of the method: as §2

kochia (Kochia scoparia) [16] = experiment: Test A preemergence, kochia; conditions: 0 to 100 scale; for Kochia plant response rating: 0 is no effect, 100 is complete control
Summary of the method: as §1

[17] = tested on: ryegrass, Italian (Lolium multiflorum); experiment: Test A postemergence, Italian ryegrass; conditions: 0 to 100 scale
Summary of the method: as §1

corn (Zea mays) = experiment: Test A postemergence, corn; conditions: 0 to 100 scale
Summary of the method: as §1

[18] = tested on: sedge, umbrella (small-flower umbrella sedge, Cyperus difformis); experiment: Test B flooded paddy test, umbrella sedge; conditions: Flood, 250 g ai/ha, applied to paddy water, 2-leaf stage, visual evaluation after 13 to 15 d
Summary of the method: as §2

[19] = 125 g ai/ha, 0 no effect, 100 complete control
[20] = 500 g ai/ha, 0 no effect, 100 complete control

In the case of `CC(Nc1ncc(C(F)(F)F)c(N)n1)c1coc2cc(Cl)ccc12` (racemic) [Compound 77], the “Plant response rating, Foxtail, Giant” value [1, 19] is reported as 0, the “Plant response rating, Foxtail, Giant” value [1, 20] is reported as 20 and the “Ryegrass, Italian plant response rating” value ([2]; 125 g ai/ha) is reported as 20. The “Ryegrass, Italian plant response rating” value ([2]; 500 g ai/ha) was 30, the “Plant response rating, Barnyardgrass (0 to 100 scale, 0 is no effect, 100 is complete control)” value [3] was 0 and the “Plant response rating, Kochia” value (kochia (Kochia scoparia) [4]; [19]) was 30. For the same compound, the “Plant response rating, Kochia” value (kochia (Kochia scoparia) [4]; [20]) was 90, the “Plant response rating, Wheat” value [5, 19] was 20 and the “Plant response rating, Wheat” value [5, 20] was 30. For the same compound, the “Plant response rating, Ragweed” value [6, 19] was 20, the “Plant response rating, Ragweed” value [6, 20] was 90 and the “Plant response rating, Pigweed” value [7, 19] was 70. For the same compound, the “Plant response rating, Pigweed” value [7, 20] was 100, the “Foxtail, Giant plant response rating” value ([8]; 125 g ai/ha) was 20 and the “Foxtail, Giant plant response rating” value ([8]; 500 g ai/ha) was 40. The “Plant response rating, Barnyardgrass” value [9, 19] was 0, the “Plant response rating, Barnyardgrass” value [9, 20] was 0 and the “Pigweed plant response rating” value ([10]; 125 g ai/ha) was 40. For the same compound, the “Pigweed plant response rating” value ([10]; 500 g ai/ha) was 90, the “Plant response rating, Blackgrass” value [11, 19] was 0 and the “Plant response rating, Blackgrass” value [11, 20] was 0. The “Plant response rating, Galium” value [12, 19] was 50, the “Plant response rating, Galium” value [12, 20] was 80 and the “Ragweed plant response rating” value ([13]; 125 g ai/ha) was 80. The “Ragweed plant response rating” value ([13]; 500 g ai/ha) was 90, the “Plant response rating, Ducksalad (0 to 100 scale, 0 is no effect, 100 is complete control)” value [14] was 0 and the “Barnyardgrass plant response rating” value ([15]; 125 g ai/ha) was 0. For the same compound, the “Barnyardgrass plant response rating” value ([15]; 500 g ai/ha) was 0, the “Plant response rating, Rice (0 to 100 scale, 0 is no effect, 100 is complete control)” value (rice (Oryza sativa)) was 0 and the “Kochia plant response rating” value (kochia (Kochia scoparia) [16]; 125 g ai/ha) was 50. For the same compound, the “Kochia plant response rating” value (kochia (Kochia scoparia) [16]; 500 g ai/ha) was 60, the “Plant response rating, Ryegrass, Italian” value [17, 19] was 0 and the “Plant response rating, Ryegrass, Italian” value [17, 20] was 40. The “Plant response rating, Corn” value (corn (Zea mays); [19]) was 0, the “Plant response rating, Corn” value (corn (Zea mays); [20]) was 20 and the “Plant response rating, Sedge, Umbrella (0 to 100 scale, 0 is no effect, 100 is complete control)” value [18] was 0.
In the case of `Cc1cc2cc([C@@H](C)Nc3ncc(C(F)(F)F)c(N)n3)oc2cc1C` [Compound 11], the “Plant response rating, Foxtail, Giant” value ([1]; 125 g ai/ha) is reported as 0, the “Plant response rating, Foxtail, Giant” value ([1]; 500 g ai/ha) is reported as 50 and the “Plant response rating, Ryegrass, Italian” value ([2]; 125 g ai/ha) is reported as 20. The “Plant response rating, Ryegrass, Italian” value ([2]; 500 g ai/ha) was 30, the “Plant response rating, Barnyardgrass (0 to 100 scale, 0 is no effect, 100 is complete control)” value [3] was 0 and the “Plant response rating, Kochia” value (kochia (Kochia scoparia) [4]; 125 g ai/ha) was 30. For the same compound, the “Plant response rating, Kochia” value (kochia (Kochia scoparia) [4]; 500 g ai/ha) was 70, the “Plant response rating, Wheat” value ([5]; 125 g ai/ha) was 0 and the “Plant response rating, Wheat” value ([5]; 500 g ai/ha) was 0. The “Plant response rating, Ragweed” value ([6]; 125 g ai/ha) was 40, the “Plant response rating, Ragweed” value ([6]; 500 g ai/ha) was 80 and the “Plant response rating, Pigweed” value ([7]; 125 g ai/ha) was 80. The “Plant response rating, Pigweed” value ([7]; 500 g ai/ha) was 80, the “Plant response rating, Foxtail, Giant” value ([8]; 125 g ai/ha) was 40 and the “Plant response rating, Foxtail, Giant” value ([8]; 500 g ai/ha) was 80. For the same compound, the “Plant response rating, Barnyardgrass” value ([9]; 125 g ai/ha) was 20, the “Plant response rating, Barnyardgrass” value ([9]; 500 g ai/ha) was 30 and the “Plant response rating, Pigweed” value ([10]; 125 g ai/ha) was 20. For the same compound, the “Plant response rating, Pigweed” value ([10]; 500 g ai/ha) was 100, the “Plant response rating, Blackgrass” value ([11]; 125 g ai/ha) was 0 and the “Plant response rating, Blackgrass” value ([11]; 500 g ai/ha) was 20. The “Plant response rating, Galium” value ([12]; 125 g ai/ha) was 50, the “Plant response rating, Galium” value ([12]; 500 g ai/ha) was 70 and the “Plant response rating, Ragweed” value ([13]; 125 g ai/ha) was 0. The “Plant response rating, Ragweed” value ([13]; 500 g ai/ha) was 90, the “Plant response rating, Ducksalad (0 to 100 scale, 0 is no effect, 100 is complete control)” value [14] was 0 and the “Plant response rating, Barnyardgrass” value ([15]; 125 g ai/ha) was 20. The “Plant response rating, Barnyardgrass” value ([15]; 500 g ai/ha) was 70, the “Plant response rating, Rice (0 to 100 scale, 0 is no effect, 100 is complete control)” value (rice (Oryza sativa)) was 0 and the “Plant response rating, Kochia” value (kochia (Kochia scoparia) [16]; 125 g ai/ha) was 0. The “Plant response rating, Kochia” value (kochia (Kochia scoparia) [16]; 500 g ai/ha) was 10, the “Plant response rating, Ryegrass, Italian” value ([17]; 125 g ai/ha) was 0 and the “Plant response rating, Ryegrass, Italian” value ([17]; 500 g ai/ha) was 0. The “Plant response rating, Corn” value (corn (Zea mays); 125 g ai/ha) was 40, the “Plant response rating, Corn” value (corn (Zea mays); 500 g ai/ha) was 0 and the “Plant response rating, Sedge, Umbrella (0 to 100 scale, 0 is no effect, 100 is complete control)” value [18] was 0.

— patent US20220119354A1, “DIAMINO-SUBSTITUTED PYRIDINES AND PYRIMIDINES AS HERBICIDES” (FMC Corporation, priority 2019, published 2022)
